From patent US10131652B2, “Pyrimidinyloxy benzene derivatives as herbicides” (E. I. DU PONT DE NEMOURS AND COMPANY, priority 2014, dated 2018)
Like-named read-outs stand apart in the source and are kept apart here.

Experiments:
Experiment in all cases: Test F pre-/postemergence plant response
Format in all cases: in vivo
kochia (Kochia scoparia) = conditions: Bassia scoparia, scale 0 to 100, read-out: Plant response rating, Kochia; for pest or weed control at 16 g/ha: 16 g ai/ha; for pest or weed control at 31 g/ha: 31 g ai/ha; for pest or weed control at 125 g/ha: 125 g ai/ha
Outline: (§1)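 Herbicidal effect judged by eye against controls, scored 0–100 (complete control = 100). Applications: pre-emergence onto seeded silt loam, post-emergence onto 2–18 cm seedlings; greenhouse, 14–21 days.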

[1] = tested on: surinam grass (Brachiaria decumbens); conditions: Urochloa decumbens, pre-emergence, scale 0 to 100, read-out: Plant response rating, Surinam Grass
Outline: as §1

corn (Zea mays) = conditions: Zea mays, scale 0 to 100
Outline: as §1

[2] = tested on: fall panicum (Panicum dichotomiflorum); conditions: Panicum dichotomiflorum, scale 0 to 100, read-out: Plant response rating, Panicum, Fall
Outline: as §1

[3] = tested on: field bindweed (Convolvulus arvensis); conditions: Convolvulus arvensis, scale 0 to 100, read-out: Plant response rating, Field Bindweed
Outline: as §1

[4] = tested on: arrowleaf sida (Sida rhombifolia); conditions: Sida rhombifolia, scale 0 to 100, read-out: Plant response rating, Arrowleaf Sida
Outline: as §1

[5] = tested on: palmer pigweed (Amaranthus palmeri); conditions: Amaranthus palmeri, scale 0 to 100, read-out: Plant response rating, Pigweed, Palmer
Outline: as §1

soybean (Glycine max) = conditions: Glycine max, scale 0 to 100, read-out: Plant response rating, Soybean
Outline: as §1

[6] = tested on: velvetleaf (Abutilon theophrasti); conditions: Abutilon theophrasti, pre-emergence, scale 0 to 100, read-out: Plant response rating, Velvetleaf
Outline: as §1

[7] = tested on: goosegrass (Eleusine indica); conditions: Eleusine indica, pre-emergence, scale 0 to 100, read-out: Plant response rating, Goosegrass
Outline: as §1

[8] = tested on: giant foxtail (Setaria faberii); conditions: Setaria faberi, pre-emergence, scale 0 to 100, read-out: Plant response rating, Foxtail, Giant
Outline: as §1

[9] = post-emergence, 8 g ai/ha Postemergence
[10] = pre-emergence, 8 g ai/ha Preemergence
[11] = post-emergence, 16 g ai/ha Postemergence
[12] = post-emergence, 31 g ai/ha Postemergence
[13] = post-emergence, 62 g ai/ha Postemergence
[14] = post-emergence, 125 g ai/ha Postemergence
[15] = pre-emergence, 16 g ai/ha Preemergence
[16] = pre-emergence, 31 g ai/ha Preemergence
[17] = pre-emergence, 62 g ai/ha Preemergence
[18] = pre-emergence, 125 g ai/ha Preemergence

## FC(F)c1cc(-c2ccccc2Oc2ncc(Cl)cn2)on1 [Compound 53, 5-chloro-2-[2-[3-(difluoromethyl)-5-isoxazolyl]phenoxy]pyrimidine]
Kochia (Kochia scoparia); [9]
  pest or weed control at 8 g/ha: 50%
Kochia (Kochia scoparia); post-emergence, Postemergence
  pest or weed control at 16 g/ha: 60%
  pest or weed control at 31 g/ha: 80%
  pest or weed control at 125 g/ha: 98%
Kochia (Kochia scoparia); post-emergence, 62 g ai/ha, Postemergence
  pest or weed control at 62 g/ha: 95%
Kochia (Kochia scoparia); [10]
  pest or weed control at 8 g/ha: 0%
Kochia (Kochia scoparia); pre-emergence, Preemergence
  pest or weed control at 16 g/ha: 0%
  pest or weed control at 31 g/ha: 20%
  pest or weed control at 125 g/ha: 100%
  pest or weed control at 62 g/ha: 50%
[1]; 8 g ai/ha Preemergence
  pest or weed control at 8 g/ha: 0%
[1]; 16 g ai/ha Preemergence
  pest or weed control at 16 g/ha: 0%
[1]; 31 g ai/ha Preemergence
  pest or weed control at 31 g/ha: 0%
[1]; 125 g ai/ha Preemergence
  pest or weed control at 125 g/ha: 0%
[1]; Preemergence
  pest or weed control at 62 g/ha: 0%
Corn (Zea mays); [9]
  Corn plant response rating (crop injury, 0 = no effect, 100 = complete kill) at 8 g/ha: 0%
Corn (Zea mays); [11]
  Corn plant response rating (crop injury, 0 = no effect, 100 = complete kill) at 16 g/ha: 0%
Corn (Zea mays); [12]
  Corn plant response rating (crop injury, 0 = no effect, 100 = complete kill) at 31 g/ha: 0%
Corn (Zea mays); [13]
  Corn plant response rating (crop injury, 0 = no effect, 100 = complete kill) at 62 g/ha: 0%
Corn (Zea mays); [14]
  Corn plant response rating (crop injury, 0 = no effect, 100 = complete kill) at 125 g/ha: 10%
Corn (Zea mays); [10]
  Corn plant response rating (crop injury, 0 = no effect, 100 = complete kill) at 8 g/ha: 0%
Corn (Zea mays); [15]
  Corn plant response rating (crop injury, 0 = no effect, 100 = complete kill) at 16 g/ha: 0%
Corn (Zea mays); [16]
  Corn plant response rating (crop injury, 0 = no effect, 100 = complete kill) at 31 g/ha: 0%
Corn (Zea mays); [17]
  Corn plant response rating (crop injury, 0 = no effect, 100 = complete kill) at 62 g/ha: 0%
Corn (Zea mays); [18]
  Corn plant response rating (crop injury, 0 = no effect, 100 = complete kill) at 125 g/ha: 15%
[2]; [9]
  pest or weed control at 8 g/ha: 0%
[2]; [11]
  pest or weed control at 16 g/ha: 5%
[2]; [12]
  pest or weed control at 31 g/ha: 20%
[2]; [13]
  pest or weed control at 62 g/ha: 15%
[2]; [14]
  pest or weed control at 125 g/ha: 60%
[2]; [10]
  pest or weed control at 8 g/ha: 0%
[2]; [15]
  pest or weed control at 16 g/ha: 0%
[2]; [16]
  pest or weed control at 31 g/ha: 0%
[2]; [18]
  pest or weed control at 125 g/ha: 98%
[2]; pre-emergence, Preemergence
  pest or weed control at 62 g/ha: 95%
[3]; [9]
  pest or weed control at 8 g/ha: 30%
[3]; [11]
  pest or weed control at 16 g/ha: 55%
[3]; [12]
  pest or weed control at 31 g/ha: 50%
[3]; [13]
  pest or weed control at 62 g/ha: 50%
[3]; [14]
  pest or weed control at 125 g/ha: 60%
[3]; [10]
  pest or weed control at 8 g/ha: 0%
[3]; [15]
  pest or weed control at 16 g/ha: 0%
[3]; [16]
  pest or weed control at 31 g/ha: 0%
[3]; [17]
  pest or weed control at 62 g/ha: 0%
[3]; [18]
  pest or weed control at 125 g/ha: 0%
[4]; [9]
  pest or weed control at 8 g/ha: 70%
[4]; [11]
  pest or weed control at 16 g/ha: 90%
[4]; [12]
  pest or weed control at 31 g/ha: 98%
[4]; [13]
  pest or weed control at 62 g/ha: 100%
[4]; [14]
  pest or weed control at 125 g/ha: 98%
[4]; [10]
  pest or weed control at 8 g/ha: 0%
[4]; [15]
  pest or weed control at 16 g/ha: 20%
[4]; [16]
  pest or weed control at 31 g/ha: 65%
[4]; [17]
  pest or weed control at 62 g/ha: 100%
[4]; [18]
  pest or weed control at 125 g/ha: 100%
[5]; [9]
  pest or weed control at 8 g/ha: 70%
[5]; [11]
  pest or weed control at 16 g/ha: 65%
[5]; [12]
  pest or weed control at 31 g/ha: 90%
[5]; [13]
  pest or weed control at 62 g/ha: 100%
[5]; [14]
  pest or weed control at 125 g/ha: 100%
[5]; [10]
  pest or weed control at 8 g/ha: 0%
[5]; [15]
  pest or weed control at 16 g/ha: 0%
[5]; [16]
  pest or weed control at 31 g/ha: 90%
[5]; [18]
  pest or weed control at 125 g/ha: 100%
[5]; pre-emergence, Preemergence
  pest or weed control at 62 g/ha: 100%
Soybean (Glycine max); [9]
  plant injury at 8 g/ha: 40%
Soybean (Glycine max); [11]
  plant injury at 16 g/ha: 80%
Soybean (Glycine max); [12]
  plant injury at 31 g/ha: 95%
Soybean (Glycine max); [13]
  plant injury at 62 g/ha: 95%
Soybean (Glycine max); [14]
  plant injury at 125 g/ha: 95%
Soybean (Glycine max); [10]
  plant injury at 8 g/ha: 0%
Soybean (Glycine max); [15]
  plant injury at 16 g/ha: 0%
Soybean (Glycine max); [16]
  plant injury at 31 g/ha: 0%
Soybean (Glycine max); [18]
  plant injury at 125 g/ha: 35%
Soybean (Glycine max); pre-emergence, Preemergence
  plant injury at 62 g/ha: 0%
[6]; 8 g ai/ha Preemergence
  pest or weed control at 8 g/ha: 0%
[6]; 16 g ai/ha Preemergence
  pest or weed control at 16 g/ha: 65%
[6]; 31 g ai/ha Preemergence
  pest or weed control at 31 g/ha: 90%
[6]; 125 g ai/ha Preemergence
  pest or weed control at 125 g/ha: 100%
[6]; Preemergence
  pest or weed control at 62 g/ha: 100%
[7]; 8 g ai/ha Preemergence
  pest or weed control at 8 g/ha: 0%
[7]; 16 g ai/ha Preemergence
  pest or weed control at 16 g/ha: 0%
[7]; 31 g ai/ha Preemergence
  pest or weed control at 31 g/ha: 0%
[7]; 125 g ai/ha Preemergence
  pest or weed control at 125 g/ha: 60%
[7]; Preemergence
  pest or weed control at 62 g/ha: 10%
[8]; 8 g ai/ha Preemergence
  pest or weed control at 8 g/ha: 0%
[8]; 16 g ai/ha Preemergence
  pest or weed control at 16 g/ha: 0%
[8]; 31 g ai/ha Preemergence
  pest or weed control at 31 g/ha: 20%
[8]; 62 g ai/ha Preemergence
  pest or weed control at 62 g/ha: 70%
[8]; 125 g ai/ha Preemergence
  pest or weed control at 125 g/ha: 95%
